The subject of data set [1] is DLD-1. As to the kind of experiment: cells. The conditions noted are these: Homo sapiens, DLD-1, 72 h.
Data set [2] deals with SW-620. Description: cells. The conditions noted are these: Homo sapiens, SW-620, 72 h.
For data set [3], the system named is SW480. Description: cells. The conditions noted are these: Homo sapiens, SW480, 72 h.
Data set [4] relates to SW480. Description: cells. The conditions noted are these: Homo sapiens, SW480, 72 h. This is another data set of the same source.
Data set [5] concerns DLD-1. Description: cells. The conditions noted are these: Homo sapiens, DLD-1, 72 h. The source holds these as a separate data set.
In data set [6] the test system is DLD-1. As to the kind of experiment: cells. The conditions noted are these: Homo sapiens, DLD-1, 72 h. This is another data set of the same source.
For data set [7], the system named is SW480. As to the kind of experiment: cells. The conditions noted are these: Homo sapiens, SW480, 72 h. This is another data set of the same source.
The next data set has as its system HEK-293T. Description: Effect on FOP reporter expression in LiCl-induced HEK293T cells incubated for 24 hrs by luciferase reporter gene assay. The conditions noted are these: human. The class given is ADME, cell-based. Background: Reporter assays use an easily measured gene product as a stand-in for the process of interest.
For data set [8], the system named is SW-620. Description: cells. The conditions noted are these: Homo sapiens, SW-620, 72 h. This is another data set of the same source.

Results on 4 compounds are retold here after ChEMBL document CHEMBL4339219, “Drug Design and Synthesis of First in Class PDZ1 Targeting NHERF1 Inhibitors as Anticancer Agents” (ACS Med Chem Lett, 2019).

For orientation: IC50 means the point on the concentration scale where inhibition reaches its midpoint. `O=C(Nc1ccccc1CO)c1c[nH]c2ccc(Cl)cc12`: the concentration for half-maximal inhibition (IC50) in the data set with DLD-1 [1] stood at 100 nM; with SW-620 [2] it was 22000 nM; with SW480 [3] it was 300 nM; in the data set with SW480 [4], 3000 nM; in the data set with DLD-1 [5], 800 nM.
Turning to `Cc1cc([N+](=O)[O-])ccc1NS(=O)(=O)c1cc(Cl)ccc1Cl`, the IC50 in the data set with DLD-1 [6] was 28000 nM; with SW480 [7] it was 10000 nM.
For `CCOC(=O)c1ccc(NS(=O)(=O)c2ccc(Br)cc2)cc1`, the Activity result in the data set with HEK-293T is “Non-Toxic”.
As to `O=C(Nc1ccc(CO)cc1)c1[nH]c2ccc(Cl)cc2c1Cc1ccccc1`, the IC50 in the data set on DLD-1 [1] came out at 100 nM; in the data set on SW-620 [2] it was 18000 nM; in the data set on SW480 [3] it was 100 nM; with SW-620 [8], 500 nM; in the data set on SW480 [4] it was 900 nM; in the data set with DLD-1 [5], 500 nM.
